According to patent publication US20030017618A1, “Chemical sensor and method of detecting chemical” (priority 2000, published 2003):

Biological target: T1, bovine derivation odorant binding protein (OBP) (Bos taurus, UniProt P07435)
T1 sequence (P07435 1-159): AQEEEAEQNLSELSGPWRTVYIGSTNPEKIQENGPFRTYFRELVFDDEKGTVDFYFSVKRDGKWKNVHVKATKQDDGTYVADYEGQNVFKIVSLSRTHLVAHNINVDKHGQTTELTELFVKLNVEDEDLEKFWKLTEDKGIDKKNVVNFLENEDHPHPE
Test: not given
Details: grade in words (high / moderate affinity); cited from earlier work

Molecule	affinity for the OBP
CCCCCCCCCCCCCC=O [tetradecanal]	high affinity
CC1=C(/C=C/C(C)=C/C=C/C(C)=C/CO)C(C)(C)CCC1 [retinol]	moderate affinity
CCCCCCC(C=O)=Cc1ccccc1 [hexyl cinnamic aldehyde]	high affinity
COC(C=C(C)CCC=C(C)C)OC [citral dimethyl acetal]	moderate affinity
coniferane	moderate affinity
CC(C)[C@@H]1CC[C@@H](C)CC1=O [menthone]	moderate affinity
CC(C)=CCCC1=CCC(C=O)CC1 (centres unmarked) [myrmac aldehyde]	moderate affinity
CC(C)=CCC/C(C)=C/CCC=O [geranyl acetaldehyde]	moderate affinity
CC(C)=CCCC(C)CC=O (centres unmarked) [citronellal]	moderate affinity
O=C(c1ccccc1)c1ccccc1 [benzophenone]	high affinity
CCCCCCCCOC(=O)C(C)C [octyl isobutyrate]	moderate affinity
jessemal	moderate affinity
C=CC(C)(O)CCC=C(C)C (centres unmarked) [linalool]	moderate affinity
CCCCCC1COCCC1OC(C)=O (centres unmarked) [jasmal]	moderate affinity
CCCCCCC=O [heptanal]	moderate affinity
CC(=O)OCCC(C)CCC=C(C)C (centres unmarked) [citronellyl acetate]	moderate affinity
carbon	moderate affinity
CC(C)C/C=C(/C=O)c1ccccc1 [cocal]	moderate affinity
CC(C)CCCC(C)(C)O [dimethol]	moderate affinity
CCCCC/C(C=O)=C/c1ccccc1 [amyl cinnamic aldehyde]	high affinity

Molecule	affinity for the OBP
musk 89	high affinity
CCCCCC1C(=O)CCC1CC(=O)OC (centres unmarked) [methyl dihydrojasmonate]	moderate affinity
pinylisobutyl aldehyde	moderate affinity
CC1C(C)(C)C2=C(C(=O)CCC2)C1(C)C (centres unmarked) [cashmeran]	moderate affinity
CC1=C(/C=C/C(C)=C/C=C/C(C)=C/C=O)C(C)(C)CCC1 [retinal]	moderate affinity
CCCCCCOC(=O)C(C)CC (centres unmarked) [hexyl methylbutyrate]	moderate affinity
hexyl pyridine	high affinity
CC1(C)C2CC=C(CCC=O)C1C2 (centres unmarked) [pinoacetaldehyde]	moderate affinity
CC1COCc2cc3c(cc21)C(C)(C)C(C)C3(C)C (centres unmarked) [galaxolide]	moderate affinity
ambrettolide	moderate affinity
CCCCCCCCC=O [nonanal]	moderate affinity
CC(C)=CCCC(C)=CC#N [citralva]	high affinity
CC/C(=C\CC1CC=C(C)C1(C)C)CO (centres unmarked) [bacdanol]	moderate affinity
dimethyl octhene	moderate affinity
OCCc1ccccc1 [phenetyl alcohol]	moderate affinity
dimethyl octane	moderate affinity
O=C(OCc1ccccc1)c1ccccc1 [benzyl benzoate]	high affinity
CCCCC[C@H]1C(=O)CC[C@H]1CC(=O)OC [epimethyl dihydrojasmonate]	moderate affinity
CC(=O)OC1CCC(C(C)(C)C)CC1 (centres unmarked) [vertenex]	moderate affinity
CC/C=C\CC1=C(C)CCC1=O [cisjasmone]	moderate affinity

Molecule	affinity for the OBP
C/C=C(C)\C=C\C=C(C)C [neo-alloocimen]	moderate affinity
CC(C)CC(=O)OC1CC2CCC1(C)C2(C)C (centres unmarked) [bornyl isovalerate]	moderate affinity
CC(C)=CCCC(C)CCO (centres unmarked) [citronellol]	high affinity
heptenal	moderate affinity
CC(C)CC(=O)OCc1ccccc1 [benzyl isovalerate]	high affinity
CCCCCCCCCCC=O [undecanal]	high affinity
ionone	moderate affinity
CCCCCCCCOC(=O)CC(C)C [octyl isovalerate]	moderate affinity
agrumea	moderate affinity
C=CCc1ccc(O)c(OC)c1 [eugenol]	moderate affinity
Cc1c[nH]c2ccccc12 [skatole]	high affinity
CC(C)CCCC(C)CCO (centres unmarked)	high affinity
CC(C)=CCC/C(C)=C/CO [geraniol]	moderate affinity
CC(C)=CCC/C(C)=C\CO [nerol]	moderate affinity
CCCCCCCCCC=O [decanal]	moderate affinity
CC(=O)OC/C=C(\C)CCC=C(C)C [geranyl acetate]	moderate affinity
C=CC(C)CCCC(C)(C)O (centres unmarked) [dihydromyrcenol]	high affinity
CCOC(=O)c1ccccc1C(=O)OCC [diethylphthalate]	moderate affinity

Biological target: T2, OBP 6C (Bos taurus, UniProt P07435)
T2 construct: successively elongated for finally synthesizing the whole length of the OBP gene; made in house; host or cells: E. coli BL21 (pET 28a(+), pETOBP-His)
T2 sequence (P07435 1-159): T1 sequence (P07435 1-159)
Test: quantity of immobilization of OBP 6C to NTA sensor chip (surface plasmon resonance, BiacoreX) in presence of odorant
Format: binding, bovine
Details: Inventive Example 1, FIG. 12; odorant final concentration 10^−8 M; OBP solution 200 nM; 25° C.; comparison between odorants
Experimental: In preparation of the OBP 6C solution employed in the present Inventive Example, the OBP 6C prepared in the aforementioned manner was dissolved in an EB (eluent buffer) and diluted so that the concentration of the solution reached 200 nM.
In preparation of the odorant solutions employed in the present Inventive Example, on the other hand, the six types of odorants, i.e., cineol, linalyl acetate, pinene, geraniol, citronellal and oxidized citronellal were dissolved in ethanol solutions (EtOH) respectively, for preparing odorant solutions of 10^−5 M in concentration as to the respective odorants.
100 μl of the OBP solution having the concentration of 200 nM prepared in the aforementioned manner and 0.1 μl of each odorant solution having the concentration of 10^−5 M were mixed with each other, for preparing six types of sample solutions employed for measurement. In this case, the final concentration of the odorant in each sample solution is […].
An ethanol solution of the OBP 6C (final concentration of EtOH: 0.1%) containing no odorant was also prepared as a comparative sample (blank).
Each sample solution prepared in the aforementioned manner was left to stand at 25° C. for one hour.
Then, an NTA sensor chip (by Biacore) was set in BiacoreX (by Biacore) and thereafter the temperature was set to 25° C. for performing priming with an elution buffer shown in Table 4 described later. Thereafter stabilization of the base was confirmed and the elution buffer was continuously fed at a flow velocity of 20 μl/min. until the temperature reached the set value.
Further, a reproduced solution (30 μl) shown in Table 4 described later was added at a flow velocity of 10 μl/min. and excessive bivalent cation was removed. Then, an Ni solution (30 μl) shown in Table 4 described later was added at a flow velocity of 10 μl/min. for chelating Ni to NTA and immobilizing Ni.
Then, one of the sample solutions (10 μl) prepared in the above was added at a flow velocity of 1 μl/min. for 10 minutes, for immobilizing the OBP 6C onto the sensor chip. After completion of immobilization, the quantity of immobilization of the OBP 6C was measured. Thereafter the reproduced solution shown in Table 4 was employed for washing and removing the OBP 6C immobilized onto the sensor chip.
Operations similar to the above were performed also as to the other sample solutions, for measuring the quantities of immobilization of the OBP 6C as to all of the six types of sample solutions and the comparative (blank) sample solution.
In this case, the quantity of immobilization of the comparative sample (blank) containing no odorant was regarded as 100% for calculating relative values of the quantities of immobilization of the OBP 6C in the respective samples with reference thereto.
In the present Inventive Example, an OBP 6C solution was first prepared along with preparation of DMO solutions. In this case, the OBP 6C solution was prepared by a method similar to the preparation method in Inventive Example 1. In preparation of the DMO solutions, DMO was dissolved in ethanol (EtOH), for preparing solutions of 10^−3, 10^−4, 10^−5 and 10^−6 M in concentration respectively.
100 μl of the OBP 6C solution having the concentration of […] and 0.5 μl of each of the DMO solutions of 10^−3, 10^−4, 10^−5 and 10^−6 M, thereby preparing sample solutions having DMO final concentration values of 5×10^−6, 5×10^−7, 5×10^−8 and 5×10^−9 M respectively. Also in this case, an ethanol solution (final concentration of EtOH: 0.1%) of the OBP 6C containing no DMO was prepared as a comparative sample, similarly to the case of Inventive Example 1.
The respective sample solutions prepared in the aforementioned manner were left to stand at 25° C. for one hour.
After preparing the sample solutions in the aforementioned manner, the quantities of immobilization of the OBP 6C were measured as to the respective sample solutions by a method similar to that in Inventive Example 1.

Molecule	affinity for the OBP 6C
CC(C)=CCCC(C)CC=O (centres unmarked) [citronellal]	higher affinity for the OBP 6C as compared with geraniol
oxidized citronellal	reduced in oxidized citronellal as compared with non-oxidized citronellal

Same assay, conditions: Inventive Example 1, FIG. 12; odorant final concentration 10^−8 M; blank regarded as 100%; comparison between odorants

Molecule	quantity of immobilization of the OBP 6C
CC(C)=CCCC(C)CC=O (centres unmarked) [citronellal]	reduced in citronellal as compared with geraniol
oxidized citronellal	increased in oxidized citronellal as compared with the non-oxidized case

Same assay, conditions: Inventive Example 2, FIG. 13

Molecule	DMO concentration that can be determined from the quantity of immobilization of the OBP 6C (quantitative limit)
CC(C)CCCC(C)CCO (centres unmarked)	at least 10^−8 M

Same assay, conditions: Inventive Example 2, FIG. 13; DMO 5×10^−6 to 5×10^−9 M

Molecule	DMO concentration range with constant correlation between concentration and quantity of immobilization of the OBP 6C
CC(C)CCCC(C)CCO (centres unmarked)	at least 5×10^−8 M

Same assay, conditions: Inventive Example 2, FIG. 13; DMO concentration smaller than 10^−8 M; versus absence of the odorant

Molecule	quantity of immobilization of the OBP 6C
CC(C)CCCC(C)CCO (centres unmarked)	equalized with the quantity of immobilization
